Data published in ChEMBL document CHEMBL1201862, “PubChem BioAssay data set” (2004).
The source made the active and inactive calls.

How the values were obtained:
[1] = target: Latent membrane protein 1 (Human herpesvirus 4 (strain B95-8), UniProt P03230); assay: LMP1 TES1 pathway selectivity over dsRED control – imaging, HEK293T, dual-color eGFP/dsRED, cherry-picks, selectivity assay for LMP1 NF-kB inhibitor project, dose response (AID 588398); assay type: functional, cell-based
[2] = target: T1, Polyadenylate-binding protein 1 (Homo sapiens, UniProt P11940); assay: MLLE binding blockers, Cy5 peptide tracer – biochemical, fluorescence polarization, Cy5-PAM2 peptide, secondary, miRNA deadenylation inhibitor project, dose response (AID 602260); assay type: functional; conditions: read-out: IC50_Mean
[3] = target: T2, Coagulation factor XII (Homo sapiens, UniProt P00748); assay type: functional;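 note: activated factor XIIa alpha cleaving a fluorogenic AMC peptide substrate; inhibitor potency from loss of enzyme activity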
T2 sequence (P00748 whole entry): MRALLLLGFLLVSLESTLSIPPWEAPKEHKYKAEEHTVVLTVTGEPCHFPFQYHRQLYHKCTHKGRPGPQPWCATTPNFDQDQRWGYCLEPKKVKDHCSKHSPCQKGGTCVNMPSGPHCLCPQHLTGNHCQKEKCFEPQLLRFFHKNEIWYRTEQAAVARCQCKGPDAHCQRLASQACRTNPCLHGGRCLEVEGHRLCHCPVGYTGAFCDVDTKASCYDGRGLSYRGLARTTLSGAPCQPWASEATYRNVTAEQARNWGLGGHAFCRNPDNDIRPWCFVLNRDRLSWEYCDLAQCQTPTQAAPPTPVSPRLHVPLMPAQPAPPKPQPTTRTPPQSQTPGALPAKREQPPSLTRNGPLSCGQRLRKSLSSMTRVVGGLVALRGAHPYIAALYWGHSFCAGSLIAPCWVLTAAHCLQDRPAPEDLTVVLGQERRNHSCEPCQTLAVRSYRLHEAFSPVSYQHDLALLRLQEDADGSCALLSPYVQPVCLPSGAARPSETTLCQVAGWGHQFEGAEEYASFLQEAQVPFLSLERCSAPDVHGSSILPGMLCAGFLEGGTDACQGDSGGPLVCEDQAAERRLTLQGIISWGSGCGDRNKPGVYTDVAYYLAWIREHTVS

[4] = target: T1, Polyadenylate-binding protein 1; assay: MLLE domain peptide-binding blockers, IC50 – biochemical, fluorescence polarization, FITC-PAM2 peptide, dose response (AID 602259); assay type: functional; conditions: read-out: IC50_Mean
[5] = NIH3T3 cell viability loss – ATP luminescence, mouse fibroblasts, counter-screen, dose response (AID 2010); assay type: functional, cell-based;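 note: cells exposed to compound for about 90 hours before reading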
[6] = Trypanosoma cruzi growth suppression in host cells – NIH3T3 host cells, beta-gal luminescence, confirmation (AID 2044); assay type: functional, cell-based;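 note: intracellular parasites grown in NIH/3T3 mouse fibroblasts as host cells; luminescent beta-galactosidase reporter signal from transgenic T. cruzi replicating inside host cells; inhibitors lower the luminescence signal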
[7] = system: INS1; assay: INS-1E survival protection against cytokine death – cell-based, luminescence, retest, dose response (AID 449756); assay type: functional; conditions: Rattus norvegicus;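 note: cell death triggered by IL-1 beta plus TNF-alpha plus IFN-gamma mixture; protective hits raise ATP signal compared with cytokine alone wells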
[8] = target: Beta-galactosidase (Escherichia coli, UniProt Q8VNN2); assay: PubChem AID 485352; assay type: functional
[9] = target: T3, Type-1 angiotensin II receptor (Homo sapiens, UniProt P30556); assay: antagonism of angiotensin II type 1 receptor – cell-based, uHTS hits, selectivity assay for APJ receptor antagonist project, dose response (AID 463214); assay type: functional;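 note: antagonist potency against angiotensin II stimulated AT1 response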
T3 sequence (P30556 whole entry): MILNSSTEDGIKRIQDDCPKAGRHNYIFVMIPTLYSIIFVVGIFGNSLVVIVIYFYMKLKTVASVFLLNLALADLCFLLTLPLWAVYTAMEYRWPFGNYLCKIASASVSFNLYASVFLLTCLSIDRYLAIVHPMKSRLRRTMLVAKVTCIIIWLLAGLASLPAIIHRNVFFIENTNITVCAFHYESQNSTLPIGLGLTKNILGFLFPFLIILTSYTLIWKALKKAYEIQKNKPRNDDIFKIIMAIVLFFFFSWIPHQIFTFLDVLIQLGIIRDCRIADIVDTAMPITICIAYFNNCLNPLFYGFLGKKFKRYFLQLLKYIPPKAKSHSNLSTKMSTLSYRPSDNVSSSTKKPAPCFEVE

[10] = Fluorescence-based cell-based high throughput dose response assay for inhibitors of the interaction of nucleotide-binding oligomerization domain containing 2 (NOD2) and the receptor-interacting serine-threonine kinase 2 (RIPK2).; assay type: functional; conditions: Homo sapiens
[11] = viability loss in HeLa cells – cytotoxicity control for MgcRacGAP inhibitor project, dose response (AID 624300); assay type: functional
[12] = HPDE-C7 pancreatic duct cell viability loss – fluorescence, HTS (AID 430); assay type: functional, cell-based; conditions: Homo sapiens
[13] = viability loss of HPDE-C7K cells – cell-based, fluorescence, HTS, primary screen (AID 431); assay type: functional; conditions: Homo sapiens
[14] = target: Phospholipase D1 (Homo sapiens, UniProt Q13393); assay: cellular phospholipase D1 inhibition IC50 – cell-based, dose response (AID 602151); assay type: functional;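 note: cellular PLD1 assay in Calu-1 cells stimulated with PMA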
[15] = target: Phospholipase D2 (Homo sapiens, UniProt O14939); assay: cellular phospholipase D2 inhibition IC50 – cell-based, dose response (AID 602147); assay type: functional;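 note: cellular assay in HEK293 cells overexpressing GFP-tagged PLD2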
[16] = luciferase reporter signal suppression in cells – H4 neuroglioma cells, luminescence, dose response (AID 1990); assay type: functional, cell-based
[17] = alpha-synuclein stem-loop luciferase translation blockers – H4 neuroglioma cells, luminescence, confirmation (AID 1988); assay type: functional, cell-based
[18] = Luminescence Cell-Based Dose Response HTS to Identify Inhibitors of 5'UTR Stem-Loop Driven Prion Protein mRNA Translation in H4 Neuroglioblastoma Cells. [Related pubchem assays: 1827 (Project Summary), 1813 (Primary HTS)]; assay type: functional
[19] = system: Streptococcus; assay: GAS UMAA2166 growth inhibition – luminescence, BacTiterGlo, counter-screen for streptokinase expression inhibitor project, dose response (AID 1915); assay type: functional, organism-based;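 note: potency for reduction of bacterial viability or growth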
[20] = target: Heat shock protein HSP 90-alpha (Homo sapiens, UniProt P07900); assay type: functional, organism-based
[21] = microbe, parasite or virus in culture; assay type: functional; conditions: Mycobacterium tuberculosis
[22] = system: Streptococcus sp. 'group A'; assay: Streptococcus pyogenes SK(-)GAS viability under kanamycin – luminescence, BacTiterGlo, confirmation, counter-screen for streptokinase expression inhibitor project, dose response (AID 1900); assay type: functional, organism-based

Phospholipase D1, sequence (Q13393 whole entry): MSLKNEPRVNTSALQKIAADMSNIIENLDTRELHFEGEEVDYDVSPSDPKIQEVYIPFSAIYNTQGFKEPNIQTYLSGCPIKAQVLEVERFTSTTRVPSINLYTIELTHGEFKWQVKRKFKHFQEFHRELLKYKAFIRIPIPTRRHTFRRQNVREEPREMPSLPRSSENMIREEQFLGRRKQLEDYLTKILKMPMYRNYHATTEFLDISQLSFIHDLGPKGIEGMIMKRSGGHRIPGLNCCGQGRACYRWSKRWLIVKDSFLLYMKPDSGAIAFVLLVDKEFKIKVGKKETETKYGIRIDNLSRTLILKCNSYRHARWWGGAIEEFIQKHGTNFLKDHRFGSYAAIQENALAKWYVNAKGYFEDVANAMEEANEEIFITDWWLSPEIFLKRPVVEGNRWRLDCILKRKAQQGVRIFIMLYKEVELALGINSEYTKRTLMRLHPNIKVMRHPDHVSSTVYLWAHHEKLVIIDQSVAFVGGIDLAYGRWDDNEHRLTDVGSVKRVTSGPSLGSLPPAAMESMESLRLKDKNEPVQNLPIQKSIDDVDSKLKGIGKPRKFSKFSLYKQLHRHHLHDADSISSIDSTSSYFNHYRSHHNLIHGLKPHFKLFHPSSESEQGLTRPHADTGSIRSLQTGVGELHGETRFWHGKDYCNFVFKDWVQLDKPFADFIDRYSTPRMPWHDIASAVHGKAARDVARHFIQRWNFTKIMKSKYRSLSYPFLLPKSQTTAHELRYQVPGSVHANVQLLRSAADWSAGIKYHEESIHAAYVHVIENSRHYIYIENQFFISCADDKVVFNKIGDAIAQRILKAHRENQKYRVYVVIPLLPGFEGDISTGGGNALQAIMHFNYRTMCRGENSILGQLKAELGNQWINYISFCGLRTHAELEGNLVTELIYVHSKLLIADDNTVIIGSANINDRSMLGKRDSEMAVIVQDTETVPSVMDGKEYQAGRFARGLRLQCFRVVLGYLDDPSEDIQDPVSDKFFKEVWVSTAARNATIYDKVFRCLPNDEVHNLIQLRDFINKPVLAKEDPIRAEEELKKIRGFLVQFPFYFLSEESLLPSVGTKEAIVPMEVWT
Phospholipase D2, sequence (O14939 whole entry): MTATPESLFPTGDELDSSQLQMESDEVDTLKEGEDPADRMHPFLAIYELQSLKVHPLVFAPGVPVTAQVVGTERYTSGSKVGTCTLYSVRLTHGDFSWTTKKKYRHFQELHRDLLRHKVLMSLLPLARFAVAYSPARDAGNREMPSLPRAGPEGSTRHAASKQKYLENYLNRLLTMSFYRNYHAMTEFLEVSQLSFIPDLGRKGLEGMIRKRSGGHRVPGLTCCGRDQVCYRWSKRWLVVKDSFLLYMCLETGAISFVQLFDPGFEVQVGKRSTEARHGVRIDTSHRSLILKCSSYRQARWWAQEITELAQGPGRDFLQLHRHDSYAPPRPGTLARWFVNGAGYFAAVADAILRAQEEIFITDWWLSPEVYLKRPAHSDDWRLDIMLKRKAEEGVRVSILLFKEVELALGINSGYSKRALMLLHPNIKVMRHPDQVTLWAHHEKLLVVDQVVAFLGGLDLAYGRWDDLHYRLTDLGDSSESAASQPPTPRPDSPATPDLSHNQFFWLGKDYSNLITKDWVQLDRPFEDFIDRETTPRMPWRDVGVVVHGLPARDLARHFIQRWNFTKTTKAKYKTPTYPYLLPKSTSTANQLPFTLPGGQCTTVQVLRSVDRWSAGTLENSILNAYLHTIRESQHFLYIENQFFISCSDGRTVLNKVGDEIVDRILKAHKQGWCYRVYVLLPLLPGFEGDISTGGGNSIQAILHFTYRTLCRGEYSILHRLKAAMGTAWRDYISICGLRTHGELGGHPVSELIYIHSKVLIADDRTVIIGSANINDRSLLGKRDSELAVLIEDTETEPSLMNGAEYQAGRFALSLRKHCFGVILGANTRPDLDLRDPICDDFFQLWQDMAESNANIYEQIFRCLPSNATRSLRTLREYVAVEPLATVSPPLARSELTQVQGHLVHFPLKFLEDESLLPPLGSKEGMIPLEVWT
T1 sequence (P11940 whole entry): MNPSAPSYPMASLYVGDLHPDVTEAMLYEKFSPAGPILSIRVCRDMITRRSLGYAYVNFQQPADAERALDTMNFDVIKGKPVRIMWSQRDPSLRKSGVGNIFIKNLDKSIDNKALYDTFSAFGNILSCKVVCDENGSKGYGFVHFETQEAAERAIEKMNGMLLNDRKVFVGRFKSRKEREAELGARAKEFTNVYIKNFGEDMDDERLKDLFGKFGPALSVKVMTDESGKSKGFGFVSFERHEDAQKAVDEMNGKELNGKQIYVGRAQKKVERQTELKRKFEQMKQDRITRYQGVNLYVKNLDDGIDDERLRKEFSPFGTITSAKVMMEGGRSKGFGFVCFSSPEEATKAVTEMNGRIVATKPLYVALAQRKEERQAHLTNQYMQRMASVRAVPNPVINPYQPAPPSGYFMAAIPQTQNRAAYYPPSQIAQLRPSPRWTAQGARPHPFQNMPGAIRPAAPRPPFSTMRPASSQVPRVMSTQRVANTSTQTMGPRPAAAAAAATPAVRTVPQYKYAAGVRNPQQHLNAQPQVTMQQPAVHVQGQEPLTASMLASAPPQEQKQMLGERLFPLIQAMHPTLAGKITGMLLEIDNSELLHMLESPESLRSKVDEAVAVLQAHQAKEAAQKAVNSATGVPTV
Beta-galactosidase, sequence (Q8VNN2 whole entry): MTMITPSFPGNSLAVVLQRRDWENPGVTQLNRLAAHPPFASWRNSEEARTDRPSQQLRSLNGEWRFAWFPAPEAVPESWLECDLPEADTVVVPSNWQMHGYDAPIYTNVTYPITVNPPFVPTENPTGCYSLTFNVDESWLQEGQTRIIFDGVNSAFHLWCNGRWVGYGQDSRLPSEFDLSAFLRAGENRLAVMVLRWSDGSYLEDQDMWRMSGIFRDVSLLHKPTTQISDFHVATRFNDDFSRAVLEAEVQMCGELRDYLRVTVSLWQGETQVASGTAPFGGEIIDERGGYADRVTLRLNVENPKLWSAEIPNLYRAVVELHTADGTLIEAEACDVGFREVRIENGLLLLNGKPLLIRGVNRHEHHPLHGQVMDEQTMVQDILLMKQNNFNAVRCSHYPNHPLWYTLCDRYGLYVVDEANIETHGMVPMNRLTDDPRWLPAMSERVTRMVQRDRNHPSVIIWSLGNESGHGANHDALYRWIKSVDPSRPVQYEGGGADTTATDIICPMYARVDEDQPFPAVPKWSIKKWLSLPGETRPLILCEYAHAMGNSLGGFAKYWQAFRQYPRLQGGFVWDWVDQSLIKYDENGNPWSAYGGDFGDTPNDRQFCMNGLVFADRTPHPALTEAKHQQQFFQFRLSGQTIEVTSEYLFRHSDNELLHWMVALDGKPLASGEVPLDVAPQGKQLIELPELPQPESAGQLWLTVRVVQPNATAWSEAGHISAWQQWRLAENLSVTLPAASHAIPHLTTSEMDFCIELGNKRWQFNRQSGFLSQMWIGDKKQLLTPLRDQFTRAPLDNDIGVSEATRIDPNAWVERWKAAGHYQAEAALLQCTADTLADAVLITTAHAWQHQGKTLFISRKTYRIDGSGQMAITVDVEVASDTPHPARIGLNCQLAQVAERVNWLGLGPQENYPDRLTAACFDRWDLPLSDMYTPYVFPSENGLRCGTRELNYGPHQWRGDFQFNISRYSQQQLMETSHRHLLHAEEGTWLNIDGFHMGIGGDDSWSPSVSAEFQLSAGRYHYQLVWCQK
Latent membrane protein 1, sequence (P03230 whole entry): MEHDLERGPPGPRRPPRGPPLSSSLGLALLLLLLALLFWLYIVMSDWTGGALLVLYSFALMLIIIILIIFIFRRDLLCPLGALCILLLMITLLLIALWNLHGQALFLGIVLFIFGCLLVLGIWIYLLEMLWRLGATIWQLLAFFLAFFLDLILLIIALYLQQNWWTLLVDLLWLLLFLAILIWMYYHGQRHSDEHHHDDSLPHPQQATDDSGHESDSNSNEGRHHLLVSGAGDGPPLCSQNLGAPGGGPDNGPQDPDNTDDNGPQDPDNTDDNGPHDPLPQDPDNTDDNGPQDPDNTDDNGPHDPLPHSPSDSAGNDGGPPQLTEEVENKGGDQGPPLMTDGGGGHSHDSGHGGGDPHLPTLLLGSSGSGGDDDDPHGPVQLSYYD

With `C=CCn1c(O)c(N=NC(S)=Nc2ccccc2F)c2cc(S(=O)(=O)N3CCOCC3)ccc21` the AC50 [1] was 38300 nM (active), the IC50 [2] was > 66000 nM (inactive) and the IC50 [3] was > 50000 nM (inconclusive). The IC50 [4] was > 66000 nM (inactive), the EC50 [5] was 2840 nM (active) and the EC50 [6] was 495 nM (active).
For `CC1(C)CC(=O)C2=C(C1)OC1=C(C(=O)CC(C)(C)C1)C2c1ccc(O)cc1O`, the AC50 [7] was 6760 nM (active), the EC50 [8] was > 40000 nM (inactive) and the IC50 [9] was 9760 nM (active). For the same compound, the IC50 [10] was 1360 nM (active), the CC50 [11] was 50000 nM (active) and the EC50 [12] was 5630 nM (active). For the same compound, the EC50 [13] was 7070 nM (active).
For `O=C(NCCN1CCC2(CC1)C(=O)NCN2c1cccc(F)c1)c1cccc(F)c1`, the IC50 [14] was 24000 nM (active) and the IC50 [15] was 1490 nM (active).
In the case of `Cc1ccc(C(=O)N[C@@H](C)CN2CCC(n3c(=O)[nH]c4cc(Cl)ccc43)CC2)cc1`, the IC50 [14] is reported as 11 nM (active) and the IC50 [15] is reported as 1050 nM (active).
With `CNc1ccc2oc(C[C@H]3O[C@@]4(CC[C@H]3C)O[C@H]([C@H](C)C(=O)c3ccc[nH]3)[C@H](C)C[C@H]4C)nc2c1C(=O)O` [CALCIMYCIN] the AC50 [7] was 2080 nM (active), the EC50 [8] was > 40000 nM (inactive) and the IC50 [9] was > 40000 nM (not active). The EC50 [16] was 293 nM (active), the EC50 [17] was 172 nM (active) and the EC50 [18] was 267 nM (active). For the same compound, the EC50 [19] was 128 nM (active), the AC50 [20] was 1070 nM (active) and the CC50 [21] was 319 nM (active). The EC50 [22] was < 60 nM (active).
